Source: paper PMC9927415, “Tyrosine Kinase Inhibitors Display Potent Activity against Cryptosporidium parvum” (Microbiology Spectrum, 2022)

Legend:
PDPK1 = target: T1, PDPK1 (Homo sapiens, UniProt O15530); assay: KINOMEscan competitive binding; settings: n=1, read-out: Percent inhibition, PDPK1
T1 construct: purchased DiscoverX (KINOMEscan)
T1 sequence (O15530 1-556): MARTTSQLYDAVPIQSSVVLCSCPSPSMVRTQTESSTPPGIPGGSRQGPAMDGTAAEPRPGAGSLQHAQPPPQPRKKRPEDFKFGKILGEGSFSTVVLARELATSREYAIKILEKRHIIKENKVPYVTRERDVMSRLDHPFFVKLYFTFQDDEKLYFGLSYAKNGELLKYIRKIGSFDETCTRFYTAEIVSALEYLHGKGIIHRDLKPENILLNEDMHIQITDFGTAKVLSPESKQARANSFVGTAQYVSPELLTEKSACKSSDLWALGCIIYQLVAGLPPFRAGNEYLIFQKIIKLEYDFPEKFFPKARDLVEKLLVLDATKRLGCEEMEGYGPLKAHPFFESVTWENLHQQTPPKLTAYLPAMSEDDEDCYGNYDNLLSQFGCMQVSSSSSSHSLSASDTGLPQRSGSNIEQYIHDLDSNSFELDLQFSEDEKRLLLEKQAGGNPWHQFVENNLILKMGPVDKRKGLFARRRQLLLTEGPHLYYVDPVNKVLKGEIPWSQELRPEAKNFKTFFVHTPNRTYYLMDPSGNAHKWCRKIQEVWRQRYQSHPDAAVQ

STK16 = target: T2, STK16 (Homo sapiens, UniProt O75716); assay: KINOMEscan competitive binding; settings: n=1, read-out: Percent inhibition, STK16
T2 construct: purchased DiscoverX (KINOMEscan)

PAK7/PAK5 = target: T3, PAK7/PAK5 (Homo sapiens, UniProt Q9P286); assay: KINOMEscan competitive binding; settings: n=1, read-out: Percent inhibition, PAK7/PAK5
T3 construct: purchased DiscoverX (KINOMEscan)

YANK2 = target: T4, YANK2 (Homo sapiens, UniProt Q9NY57); assay: KINOMEscan competitive binding; settings: n=1, read-out: Percent inhibition, YANK2
T4 construct: purchased DiscoverX (KINOMEscan)

PAK2 = target: T5, PAK2 (Homo sapiens, UniProt Q13177); assay: KINOMEscan competitive binding; settings: n=1, read-out: Percent inhibition, PAK2
T5 construct: purchased DiscoverX (KINOMEscan)

RPS6KA5(Kin.Dom.1) = target: T6, RPS6KA5(Kin.Dom.1) (Homo sapiens, UniProt O75582); assay: KINOMEscan competitive binding; settings: n=1, read-out: Percent inhibition, RPS6KA5(Kin.Dom.1)
T6 construct: RPS6KA5(Kin.Dom.1); purchased DiscoverX (KINOMEscan)

Cryptosporidium parvum = assay: In vitro C. parvum growth inhibition assay (Nluc reporter strain in HCT-8 cells); type: cell-based; settings: 48 h; for EC50: mean of two independent experiments, dose response 10 nM to 10 μM, read-out: Cp EC50; for inhibition at 10 µM: primary screen, 10 μM compound, three technical replicates, read-out: Mean percent inhibition of C. parvum growth
Protocol: Host intestinal epithelial adenocarcinoma (HCT-8) cells were seeded into 96-well plates and grown to 70% confluence in RPMI medium supplemented with L-glutamine, 10% fetal bovine serum (FBS), 0.1 U/mL penicillin, 0.1 μg/mL streptomycin, 0.25 μg/mL amphotericin B and 1 mM sodium pyruvate. The host cell medium was aspirated and replaced with Cryptosporidium infection media (RPMI containing 2% FBS, 0.1 U/mL penicillin, 0.1 μg/mL streptomycin and 0.25 μg/mL amphotericin B) media prior to infection. The HCT-8 cells were infected with bleached and washed Nluc expressing C. parvum oocysts (2,000 oocysts per well) to which 10 μM compounds were added and plates were incubated for 48 h at 37°C, 5% CO2 and luminescence was measured using the protocol described previously ([14], [58]). […] Negative (no drug) and positive control (10 μM nitazoxanide) wells (three replicates each) were also set-up in the same plate. After the incubation, medium was removed and 100 μL of NanoGlo lysis buffer (Promega) was added to the wells followed by incubation for 15 min at 37°C, 5% CO2. The lysate was suspended by pipetting and 100 μL of NanoGlo lysis buffer containing 1:50 of NanoGlo substrate (Promega) was added to each well. […] For the dose response assay, compounds were tested in triplicate wells in two independent experiments and percent luminescence of no drug was calculated.
EC50 values were calculated using a nonlinear regression (curve fit of log-dose versus response) in GraphPad Prism version 8.

PHKG2 = target: T7, PHKG2 (Homo sapiens, UniProt P15735); assay: KINOMEscan competitive binding; settings: n=1, read-out: Percent inhibition, PHKG2
T7 construct: purchased DiscoverX (KINOMEscan)
T7 sequence (P15735 1-406): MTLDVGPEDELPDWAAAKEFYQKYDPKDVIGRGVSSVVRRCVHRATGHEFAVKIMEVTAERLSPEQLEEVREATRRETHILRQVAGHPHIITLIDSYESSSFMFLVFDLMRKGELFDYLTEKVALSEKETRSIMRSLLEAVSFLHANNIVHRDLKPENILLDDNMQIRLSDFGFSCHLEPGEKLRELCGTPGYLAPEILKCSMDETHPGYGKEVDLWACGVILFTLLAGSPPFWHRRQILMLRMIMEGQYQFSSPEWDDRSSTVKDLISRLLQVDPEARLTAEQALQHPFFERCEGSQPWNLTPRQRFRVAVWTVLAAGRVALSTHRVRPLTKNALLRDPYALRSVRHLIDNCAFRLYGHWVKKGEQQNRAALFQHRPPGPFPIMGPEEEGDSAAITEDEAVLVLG

TLK2 = target: T8, TLK2 (Homo sapiens, UniProt Q86UE8); assay: KINOMEscan competitive binding; settings: n=1, read-out: Percent inhibition, TLK2
T8 construct: purchased DiscoverX (KINOMEscan)

SRPK1 = target: T9, SRPK1 (Homo sapiens, UniProt Q96SB4); assay: KINOMEscan competitive binding; settings: n=1, read-out: Percent inhibition, SRPK1
T9 construct: purchased DiscoverX (KINOMEscan)
T9 sequence (Q96SB4 whole entry): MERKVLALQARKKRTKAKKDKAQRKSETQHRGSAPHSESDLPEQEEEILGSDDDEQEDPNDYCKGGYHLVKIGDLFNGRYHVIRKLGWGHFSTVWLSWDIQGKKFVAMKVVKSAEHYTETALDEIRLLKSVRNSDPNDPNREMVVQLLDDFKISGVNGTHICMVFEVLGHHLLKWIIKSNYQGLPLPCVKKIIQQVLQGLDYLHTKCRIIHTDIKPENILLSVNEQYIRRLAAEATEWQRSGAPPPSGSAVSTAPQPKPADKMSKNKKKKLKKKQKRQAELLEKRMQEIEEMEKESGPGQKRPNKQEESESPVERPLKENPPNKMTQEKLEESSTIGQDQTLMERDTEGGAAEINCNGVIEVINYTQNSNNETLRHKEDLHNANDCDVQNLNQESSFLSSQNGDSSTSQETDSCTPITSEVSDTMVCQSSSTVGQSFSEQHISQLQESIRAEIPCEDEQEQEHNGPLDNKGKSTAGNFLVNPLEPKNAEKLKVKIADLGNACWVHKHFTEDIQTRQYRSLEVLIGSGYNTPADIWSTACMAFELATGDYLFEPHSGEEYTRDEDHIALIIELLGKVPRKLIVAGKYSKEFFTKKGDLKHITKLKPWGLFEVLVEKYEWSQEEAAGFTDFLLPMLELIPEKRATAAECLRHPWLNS

T6 sequence (O75582 1-387 limits assumed): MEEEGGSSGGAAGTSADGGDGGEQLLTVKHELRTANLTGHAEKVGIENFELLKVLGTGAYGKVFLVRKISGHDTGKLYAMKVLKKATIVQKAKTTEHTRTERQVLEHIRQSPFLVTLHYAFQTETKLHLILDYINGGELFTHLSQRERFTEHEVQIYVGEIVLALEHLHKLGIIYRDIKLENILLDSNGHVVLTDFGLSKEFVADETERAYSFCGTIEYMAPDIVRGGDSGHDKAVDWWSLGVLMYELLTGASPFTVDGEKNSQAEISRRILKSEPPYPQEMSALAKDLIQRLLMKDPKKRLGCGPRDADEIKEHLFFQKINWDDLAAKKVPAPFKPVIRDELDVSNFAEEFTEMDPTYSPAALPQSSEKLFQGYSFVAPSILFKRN
T2 sequence (O75716 whole entry): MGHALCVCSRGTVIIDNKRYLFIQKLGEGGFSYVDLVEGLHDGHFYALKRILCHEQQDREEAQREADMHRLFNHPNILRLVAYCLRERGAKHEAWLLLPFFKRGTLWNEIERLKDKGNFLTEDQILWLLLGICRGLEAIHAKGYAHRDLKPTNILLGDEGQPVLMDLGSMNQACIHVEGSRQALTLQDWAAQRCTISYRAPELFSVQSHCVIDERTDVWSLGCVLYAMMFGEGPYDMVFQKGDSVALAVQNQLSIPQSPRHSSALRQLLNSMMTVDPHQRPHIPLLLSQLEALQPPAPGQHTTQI
T3 sequence (Q9P286 whole entry): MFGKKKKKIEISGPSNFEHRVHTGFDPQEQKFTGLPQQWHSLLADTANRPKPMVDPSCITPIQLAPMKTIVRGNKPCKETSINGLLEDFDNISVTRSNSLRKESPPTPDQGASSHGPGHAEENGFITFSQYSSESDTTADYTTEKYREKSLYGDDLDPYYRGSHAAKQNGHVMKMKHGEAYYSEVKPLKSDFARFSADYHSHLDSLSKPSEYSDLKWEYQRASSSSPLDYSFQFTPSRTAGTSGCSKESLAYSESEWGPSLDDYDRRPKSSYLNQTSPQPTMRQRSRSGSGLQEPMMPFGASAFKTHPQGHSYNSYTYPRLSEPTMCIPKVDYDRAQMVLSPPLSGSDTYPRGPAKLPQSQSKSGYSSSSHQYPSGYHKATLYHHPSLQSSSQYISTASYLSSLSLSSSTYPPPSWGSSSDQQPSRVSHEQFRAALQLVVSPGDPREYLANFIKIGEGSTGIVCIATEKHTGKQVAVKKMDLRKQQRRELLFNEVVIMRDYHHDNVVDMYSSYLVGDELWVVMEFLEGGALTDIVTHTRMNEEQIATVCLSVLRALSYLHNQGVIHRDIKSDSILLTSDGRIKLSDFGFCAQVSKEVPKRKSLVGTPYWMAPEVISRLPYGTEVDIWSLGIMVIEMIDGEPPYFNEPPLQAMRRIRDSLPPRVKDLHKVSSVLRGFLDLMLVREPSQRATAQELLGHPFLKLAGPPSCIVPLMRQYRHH
T5 sequence (Q13177 whole entry): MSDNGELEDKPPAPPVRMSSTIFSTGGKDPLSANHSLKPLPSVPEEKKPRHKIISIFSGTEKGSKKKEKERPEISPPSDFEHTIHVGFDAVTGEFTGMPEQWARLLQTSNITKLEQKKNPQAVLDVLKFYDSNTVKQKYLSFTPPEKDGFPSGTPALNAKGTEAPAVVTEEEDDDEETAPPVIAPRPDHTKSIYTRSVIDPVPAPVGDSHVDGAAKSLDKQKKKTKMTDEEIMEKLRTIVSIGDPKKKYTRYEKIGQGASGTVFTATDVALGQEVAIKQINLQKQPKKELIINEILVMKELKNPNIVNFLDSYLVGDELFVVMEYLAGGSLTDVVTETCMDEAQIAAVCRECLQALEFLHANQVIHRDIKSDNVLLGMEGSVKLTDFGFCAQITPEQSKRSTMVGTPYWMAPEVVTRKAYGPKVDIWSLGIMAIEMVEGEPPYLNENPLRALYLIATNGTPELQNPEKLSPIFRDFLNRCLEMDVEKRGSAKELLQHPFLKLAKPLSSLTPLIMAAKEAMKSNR
T4 sequence (Q9NY57 whole entry): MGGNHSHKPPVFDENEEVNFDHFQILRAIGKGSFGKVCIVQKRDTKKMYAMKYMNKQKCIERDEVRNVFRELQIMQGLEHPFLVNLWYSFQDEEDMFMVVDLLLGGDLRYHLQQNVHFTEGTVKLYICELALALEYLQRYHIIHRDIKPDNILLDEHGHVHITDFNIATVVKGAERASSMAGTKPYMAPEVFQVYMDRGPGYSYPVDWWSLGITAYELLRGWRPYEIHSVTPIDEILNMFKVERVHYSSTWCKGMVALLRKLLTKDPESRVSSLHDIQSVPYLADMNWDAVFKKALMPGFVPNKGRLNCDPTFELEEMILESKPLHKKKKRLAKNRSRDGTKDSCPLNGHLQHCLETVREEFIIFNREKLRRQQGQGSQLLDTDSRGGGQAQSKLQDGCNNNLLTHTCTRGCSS
T8 sequence (Q86UE8 whole entry): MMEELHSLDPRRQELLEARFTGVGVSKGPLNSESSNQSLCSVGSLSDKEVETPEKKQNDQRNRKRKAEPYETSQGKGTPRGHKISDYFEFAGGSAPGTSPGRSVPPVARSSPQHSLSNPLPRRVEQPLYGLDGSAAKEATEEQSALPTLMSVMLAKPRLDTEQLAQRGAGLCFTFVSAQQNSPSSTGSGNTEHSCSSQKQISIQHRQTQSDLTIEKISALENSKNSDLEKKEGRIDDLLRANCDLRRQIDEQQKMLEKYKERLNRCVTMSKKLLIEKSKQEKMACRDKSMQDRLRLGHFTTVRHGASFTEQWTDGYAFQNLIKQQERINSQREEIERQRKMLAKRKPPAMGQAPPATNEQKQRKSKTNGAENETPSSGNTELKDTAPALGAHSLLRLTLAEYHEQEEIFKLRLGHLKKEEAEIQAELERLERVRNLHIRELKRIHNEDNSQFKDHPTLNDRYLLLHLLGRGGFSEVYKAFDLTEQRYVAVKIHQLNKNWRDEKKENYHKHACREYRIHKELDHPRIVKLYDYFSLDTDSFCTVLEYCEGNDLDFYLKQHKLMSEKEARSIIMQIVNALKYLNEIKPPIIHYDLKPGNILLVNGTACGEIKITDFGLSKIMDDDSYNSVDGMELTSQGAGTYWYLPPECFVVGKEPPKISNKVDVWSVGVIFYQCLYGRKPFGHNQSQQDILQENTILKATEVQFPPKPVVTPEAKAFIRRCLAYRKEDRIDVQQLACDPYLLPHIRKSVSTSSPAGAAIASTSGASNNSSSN

SMILES	inhibition at 10 µM (PDPK1) [%]	inhibition at 10 µM (STK16) [%]	inhibition at 10 µM (PAK7/PAK5) [%]	inhibition at 10 µM (YANK2) [%]	inhibition at 10 µM (PAK2) [%]	inhibition at 10 µM (RPS6KA5(Kin.Dom.1)) [%]	EC50 (Cryptosporidium parvum) [nM]	inhibition at 10 µM (Cryptosporidium parvum) [%]	inhibition at 10 µM (PHKG2) [%]	inhibition at 10 µM (TLK2) [%]	inhibition at 10 µM (SRPK1) [%]
C[C@@H](Oc1cc(-c2cnc3ccccn23)sc1C(N)=O)c1ccccc1Cl [Compound 8]	0	0	0	0	0	0	390	95	74.6	0	96.1
Cc1ccc(O)cc1N(C)c1ccnc(Nc2cccc(S(N)(=O)=O)c2)n1 [Compound 4]	0	99.8	98.5	94.5	100	0	80	95.5	0	0	0
COc1cc(Nc2nccc(-c3sc(N)nc3-c3cccc(NC(=O)c4c(F)cccc4F)c3)n2)cc(OC)c1OC [Compound 7]	68.3	98.7	89.4	93	90	97.4	180	90.9	0	0	0
CN1CCN(c2ccc(Nc3nccc(-c4cnn5ncccc45)n3)cc2C#N)CC1 [Compound 1]	0	100	99.2	0	95.4	65.7	40	95.6	100	98.7	95.5
Fc1cccc(COc2ccc(Nc3ncnc4c3CN(CCN3CCOCC3)CC4)cc2Cl)c1 [Compound 6]	0	0	0	0	97.6	0	240	93.7	0	0	0
Cc1ccc(O)cc1Nc1ccnc(Nc2cccc(C(N)=O)c2)n1 [Compound 3]	0	99.9	67.6	0	93.4	0	610	94.4	0	0	0
Clc1ccc(Nc2ncc(-c3ccccc3)s2)cc1 [Compound 10]	0	0	0	0	0	0	420	95.1	0	0	0
COc1ccc(Nc2nccc(-c3cnn4ncccc34)n2)cc1 [Compound 2]	0	99.7	72.8	0	0	0	130	92.9	97.1	0	90.6
c1ccc(COc2cccc(-c3ccnc4[nH]ccc34)c2)cc1 [Compound 9]	0	0	0	0	0	0	310	95.2	0	0	71.2
Nc1ncc2c(-c3ccncc3)c[nH]c2n1 [Compound 11]	79.6	0	77.1	0	0	0	60	90.8	0	0	0
